Assay results taken from patent US10173991B2, “Sulfone amide linked benzothiazole inhibitors of endothelial lipase” (BRISTOL-MYERS SQUIBB COMPANY, priority 2014, dated 2019).
Where two headings read alike, the source gives them in different places.

Target: Endothelial lipase (EL) (Homo sapiens (Human), UniProt Q9Y5X9)
Assay: Endothelial lipase (EL) enzymatic assay with fluorescent substrate A10070 in DMPG vesicles
Format: biochemical
Protocol: Endothelial lipase (EL) and hepatic lipase (HL) activities were measured using a fluorescent substrate, A10070, (Invitrogen, CA) doped into an artificial vesicle containing DMPG (Avanti Polar Lipids) as the excipient. Vesicles were prepared by combining 571 μL of 29 mM DMPG in a 1:1 mixture of MeOH and CHCl3 with 2000 μL of 1 mM A10070 in a 1:1 mixture of MeOH and CHCl3. The mixture was dried under nitrogen in multiple vials then resuspended in 20 mL total volume of 50 mM HEPES pH 8.0 buffer containing 50 mM NaCl and 0.2 mM EDTA. The sample was allowed to sit at room temperature for 15 min and then was sonicated 3×4 mins on ice with a Branson Sonicator using duty cycle 1. This preparation provides vesicles with a mole fraction of 0.11 for the FRET substrate.
The enzymatic assay was measured using 384-well white Optiplates. Each well contained 20 μL of assay buffer (50 mM HEPES pH 8.0, 50 mM NaCl and 1 mM CaCl2) and 0.25 μL of a DMSO solution containing a compound of interest. EL or HL (10 μL) was added and allowed to incubate with the compound for 30 min at 37° C. The source of EL was conditioned media obtained from HT-1080 cells that were transformed using RAGE technology (Athersys) to overexpress endogenous EL, and HL was partially purified from conditioned media obtained from COS cells overexpressing HL. The reaction was started by the addition of 10 μL of a 1:10 dilution of vesicles. The final total reaction volume was […]. The reaction rates were measured on a Gemini plate reader with an excitation wavelength of 490 nm and an emission wavelength of 530 nm. Readings were taken over a period of 60 minutes, and the slope between 300 and 900 secs of the readout was used to calculate the rate of the reaction.

[1] = EL from conditioned media of HT-1080 cells, 30 min preincubation at 37° C.

Chain of Endothelial lipase (EL) (Q9Y5X9 21-500): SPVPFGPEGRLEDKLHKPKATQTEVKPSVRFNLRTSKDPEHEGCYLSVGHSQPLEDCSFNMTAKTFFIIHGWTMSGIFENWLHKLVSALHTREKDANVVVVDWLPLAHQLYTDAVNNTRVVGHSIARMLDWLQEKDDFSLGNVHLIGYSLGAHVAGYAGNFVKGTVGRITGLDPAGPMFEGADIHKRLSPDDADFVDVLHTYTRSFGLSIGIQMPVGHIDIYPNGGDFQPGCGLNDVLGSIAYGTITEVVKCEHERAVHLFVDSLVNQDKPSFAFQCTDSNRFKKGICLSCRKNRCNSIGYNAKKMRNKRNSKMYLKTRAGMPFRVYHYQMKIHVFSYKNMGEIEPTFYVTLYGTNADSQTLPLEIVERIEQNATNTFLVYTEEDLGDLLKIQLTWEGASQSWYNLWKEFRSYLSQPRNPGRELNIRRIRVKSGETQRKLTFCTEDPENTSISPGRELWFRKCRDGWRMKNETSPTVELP

O=C(CNC(=O)C(c1nc2cc(F)c(-c3ccc(NC(=O)OCc4ccccc4)cc3)cc2s1)S(=O)(=O)CC1CC1)NC1CC1 (stereo not drawn) [Example 51, benzyl N-{4-[2-({[(cyclopropyl-carbamoyl)methyl]carbamoyl} (cyclopropyl-methanesulfonyl)methyl)-5-fluoro-1,3-benzothiazol-6-yl]phenyl} carbamate]
IC50: 3 nM

CCCS(=O)(=O)C(C(=O)NCC(=O)NC1CC1)c1nc2cc(F)c(-c3ccc(NC(=O)OCc4ccccc4)cc3)cc2s1 (stereo not drawn) [Example 52, benzyl N-{4-[2-({[(cyclopropyl-carbamoyl)methyl]carbamoyl} (propane-1-sulfonyl)methyl)-5-fluoro-1,3-benzothiazol-6-yl]phenyl} carbamate]
IC50: 1 nM

CCCCS(=O)(=O)C(C(=O)NCC(=O)NC1CC1)c1nc2cc(F)c(-c3ccc(NC(=O)OCc4ccccc4)cc3)cc2s1 (stereo not drawn) [Example 53, benzyl N-(4-{2-[(butane-1-sulfonyl) ({[(cyclopropyl-carbamoyl)methyl]carbamoyl})methyl]-5-fluoro-1,3-benzothiazol-6-yl}phenyl) carbamate]
IC50: 2 nM

O=C(CNC(=O)C(c1nc2cc(F)c(-c3ccc(NC(=O)OCc4ccccc4)cc3)cc2s1)S(=O)(=O)CC1CCCCC1)NC1CC1 (stereo not drawn) [Example 54, benzyl N-(4-{2-[cyclohexyl-methanesulfonyl ({[(cyclopropyl-carbamoyl)methyl]carbamoyl})methyl]-5-fluoro-1,3-benzothiazol-6-yl}phenyl) carbamate]
IC50: 1 nM

O=C(CNC(=O)C(c1nc2ccc(-c3ccc(F)nc3)cc2s1)S(=O)(=O)Cc1ccccc1)NC1CC1 (stereo not drawn) [Example 55, N-[(Cyclopropylcarbamoyl)methyl]-2-[6-(6-fluoropyridin-3-yl)-1,3-benzothiazol-2-yl]-2-phenylmethanesulfonylacetamide]
IC50 [1]: 26 nM

O=C(CNC(=O)C(c1nc2ccc(-c3ccc(F)nc3)cc2s1)S(=O)(=O)CCC(F)(F)F)NC1CC1 (stereo not drawn) [Example 56, N-[(cyclopropyl-carbamoyl)methyl]-2-[6-(6-fluoropyridin-3-yl)-1,3-benzothiazol-2-yl]-2-(3,3,3-trifluoropropane-sulfonyl)acetamide]
IC50: 29 nM

CS(=O)(=O)C(C(=O)NCC(=O)NC1CC1)c1nc2ccc(-c3ccc(F)nc3)cc2s1 (stereo not drawn) [Example 57, N-[(cyclopropyl-carbamoyl)methyl]-2-[6-(6-fluoropyridin-3-yl)-1,3-benzothiazol-2-yl]-2-methanesulfonyl-acetamide]
IC50: 47 nM

C=CCS(=O)(=O)C(C(=O)NCC(=O)NC1CC1)c1nc2ccc(-c3ccc(F)nc3)cc2s1 (stereo not drawn) [Example 59, N-[(cyclopropyl-carbamoyl)methyl]-2-[6-(6-fluoropyridin-3-yl)-1,3-benzothiazol-2-yl]-2-(prop-2-ene-1-sulfonyl) acetamide]
IC50: 20 nM

COCCS(=O)(=O)C(C(=O)NCC(=O)NC1CC1)c1nc2ccc(-c3ccc(N(C)C(=O)OC(C)(C)C)cc3)cc2s1 (stereo not drawn) [Example 60, tert-Butyl N-{4-[2-({[(cyclopropylcarbamoyl)methyl]carbamoyl}(2-methoxyethanesulfonyl)methyl)-1,3-benzothiazol-6-yl]phenyl}-N-methylcarbamate]
IC50 [1]: 3 nM

COCCS(=O)(=O)C(C(=O)NCC(=O)NC1CC1)c1nc2cc(-c3cccnc3C(F)(F)F)ccc2s1 (stereo not drawn) [Example 61, N-[(cyclopropyl-carbamoyl)methyl]-2-(2-methoxyethane-sulfonyl)-2-{5-[2-(trifluoromethyl)pyridin-3-yl]-1,3-benzothiazol-2-yl}acetamide]
IC50: 5 nM

COCCS(=O)(=O)C(C(=O)NCC(=O)NC1CC1)c1nc2cc(-c3cncc(Cl)c3)ccc2s1 (stereo not drawn) [Example 62]
IC50: 5 nM

COCCS(=O)(=O)C(C(=O)NCC(=O)NC1CC1)c1nc2cc(-c3ccnc(C(F)(F)F)c3)ccc2s1 (stereo not drawn) [Example 63, N-[(cyclopropyl-carbamoyl)methyl]-2-(2-methoxyethane-sulfonyl)-2-{5-[2-(trifluoromethyl)pyridin-4-yl]-1,3-benzothiazol-2-yl}acetamide]
IC50: 5 nM
